From article PMC5500991, “Substituted arylsulphonamides as inhibitors of perforin-mediated lysis” (European Journal of Medicinal Chemistry, 2017)
Where a name gives a salt, the structure may show the parent alone.

Row | melting point [°C] | SMILES
1 | 280 to 283 | CN1Cc2cc(-c3ccc(-c4cncc(NS(=O)(=O)c5cc(Br)cc(C(F)(F)F)c5)c4)s3)ccc2C1=O [Compound 65, 3-Bromo-N-(5-(5-(2-methyl-1-oxoisoindolin-5-yl)thiophen-2-yl)pyridin-3-yl)-5-(trifluoromethyl)benzenesulphonamide]
2 | 282 to 285 | CN1Cc2cc(-c3ccc(-c4cncc(NS(=O)(=O)c5ccc(F)c(F)c5)c4)s3)ccc2C1=O [Compound 25, 3,4-Difluoro-N-(5-(5-(2-methyl-1-oxoisoindolin-5-yl)thiophen-2-yl)pyridin-3-yl)benzenesulfonamide]
3 | 272 to 274 | CN1Cc2cc(-c3ccc(-c4cncc(NS(=O)(=O)c5ccc(F)cc5)c4)s3)ccc2C1=O [Compound 24, 4-Fluoro-N-(5-(5-(2-methyl-1-oxoisoindolin-5-yl)thiophen-2-yl)pyridin-3-yl)benzenesulfonamide]
4 | 240 to 244 | COc1ccc(S(=O)(=O)Nc2cncc(-c3ccc(-c4ccc5c(c4)CN(C)C5=O)s3)c2)cc1OC (as salt: sodium) [Compound 40, 3,4-Dimethoxy-N-(5-(5-(2-methyl-1-oxoisoindolin-5-yl)thiophen-2-yl)pyridin-3-yl)benzenesulfonamide, sodium salt]
5 | 254 to 258 | COc1ccc(S(=O)(=O)Nc2cncc(-c3ccc(-c4ccc5c(c4)CN(C)C5=O)s3)c2)cc1 [Compound 39, 4-Methoxy-N-(5-(5-(2-methyl-1-oxoisoindolin-5-yl)thiophen-2-yl)pyridin-3-yl)benzenesulfonamide]
6 | 274 to 277 | Cc1ccc(NS(=O)(=O)c2ccccn2)cc1-c1ccc(-c2ccc3c(c2)CN(C)C3=O)s1 [Compound 15, N-(4-Methyl-3-(5-(2-methyl-1-oxoisoindolin-5-yl)thiophen-2-yl)phenyl)pyridine-2-sulfonamide]
7 | 289 to 293 | CN1Cc2cc(-c3ccc(-c4cncc(NS(=O)(=O)c5ccccc5Br)c4)s3)ccc2C1=O [Compound 32, 2-Bromo-N-(5-(5-(2-methyl-1-oxoisoindolin-5-yl)thiophen-2-yl)pyridin-3-yl)benzenesulfonamide]
8 | 230 to 232 | CN1Cc2cc(-c3ccc(-c4cncc(NS(=O)(=O)c5cccc(OC(F)(F)F)c5)c4)s3)ccc2C1=O [Compound 42, N-(5-(5-(2-Methyl-1-oxoisoindolin-5-yl)thiophen-2-yl)pyridin-3-yl)-3-(trifluoromethoxy)benzenesulfonamide]
9 | 209 to 212 | COC(=O)c1ccccc1S(=O)(=O)Nc1cncc(-c2ccc(-c3ccc4c(c3)CN(C)C4=O)s2)c1 [Compound 51, Methyl 2-(N-(5-(5-(2-methyl-1-oxoisoindolin-5-yl)thiophen-2-yl)pyridin-3-yl)sulfamoyl)benzoate]
10 | 276 to 279 | CN1Cc2cc(-c3ccc(-c4cncc(NS(=O)(=O)c5ccc(Br)cc5)c4)s3)ccc2C1=O [Compound 34, 4-Bromo-N-(5-(5-(2-methyl-1-oxoisoindolin-5-yl)thiophen-2-yl)pyridin-3-yl)benzenesulfonamide]
11 | 269 to 272 | CN1Cc2cc(-c3ccc(-c4cncc(NS(=O)(=O)c5ccccc5S(C)(=O)=O)c4)s3)ccc2C1=O [Compound 56, N-(5-(5-(2-Methyl-1-oxoisoindolin-5-yl)thiophen-2-yl)pyridin-3-yl)-2-(methylsulfonyl)benzenesulfonamide]
12 | 235 to 239 | CN1Cc2cc(-c3ccc(-c4ccnc(NS(=O)(=O)c5ccc(F)cc5F)c4)s3)ccc2C1=O [Compound 5, 2,4-Difluoro-N-(4-(5-(2-methyl-1-oxoisoindolin-5-yl)thiophen-2-yl)pyridin-2-yl)benzenesulfonamide]
13 | 269 to 272 | COC(=O)c1ccc(S(=O)(=O)Nc2cncc(-c3ccc(-c4ccc5c(c4)CN(C)C5=O)s3)c2)cc1 [Compound 53, Methyl 4-(N-(5-(5-(2-methyl-1-oxoisoindolin-5-yl)thiophen-2-yl)pyridin-3-yl)sulfamoyl)benzoate]
14 | 295 to 298 | CN1Cc2cc(-c3ccc(-c4cncc(NS(=O)(=O)c5ccc(I)cc5)c4)s3)ccc2C1=O [Compound 36, 4-Iodo-N-(5-(5-(2-methyl-1-oxoisoindolin-5-yl)thiophen-2-yl)pyridin-3-yl)benzenesulfonamides]
15 | > 310 | CN1Cc2cc(-c3ccc(-c4cncc(NS(=O)(=O)c5ccccc5C#N)c4)s3)ccc2C1=O [Compound 48, 2-Cyano-N-(5-(5-(2-methyl-1-oxoisoindolin-5-yl)thiophen-2-yl)pyridin-3-yl)benzenesulfonamide]
16 | 283 to 286 | CN1Cc2cc(-c3ccc(-c4cncc(NS(=O)(=O)c5cccnc5)c4)s3)ccc2C1=O [Compound 67, N-(5-(5-(2-Methyl-1-oxoisoindolin-5-yl)thiophen-2-yl)pyridin-3-yl)pyridine-3-sulfonamide]
17 | 260 to 262 | CN1Cc2cc(-c3ccc(-c4cccc(NS(=O)(=O)c5ccc(F)cc5F)c4)s3)ccc2C1=O [Compound 9, 2,4-Difluoro-N-(3-(5-(2-methyl-1-oxoisoindolin-5-yl)thiophen-2-yl)phenyl)benzene sulphonamide]
18 | 269 to 272 | CN1Cc2cc(-c3ccc(-c4cncc(NS(=O)(=O)c5cccc(Cl)c5F)c4)s3)ccc2C1=O [Compound 60, 3-Chloro-2-fluoro-N-(5-(5-(2-methyl-1-oxoisoindolin-5-yl)thiophen-2-yl)pyridin-3-yl)benzenesulfonamide]
19 | 200 to 202 | CN1Cc2cc(-c3ccc(-c4cncc(N(C)S(=O)(=O)c5ccc(F)cc5F)c4)s3)ccc2C1=O [Compound 6, 2,4-Difluoro-N-methyl-N-(5-(5-(2-methyl-1-oxoisoindolin-5-yl)thiophen-2-yl)pyridin-3-yl)-benzenesulphonamide]
